Measured values published in US4975447A, “6-hydroxyethoxy-2-benzothiazolesulfonamide and topical treatment compositions and method for glaucoma” (University of Iowa Research Foundation, priority 1985, dated 1990).
Several values for one entry are separate records, joined by “and”; a condition that tells them apart may be missing. Identical values can stand only once.

Columns and labels:
[1] = tested on: eyes of rabbits (intraocular pressure); assay: Measurement of intraocular pressure ("Salted Rabbit Test"), applanation tonometry, topical 1% suspension; type: in vivo; conditions: for Ave. change in IOP: 50 μl of 1% suspension q 2 min x 3
Experimental: ("Salted Rabbit Test") (IOP)
Rabbits (3-4 months old) were maintained on […] solution in place of drinking water for 3 weeks prior to the determination of IOP because it has been shown that a diet deficient in sodium produces a variable response to this class of drugs. During this 3 week period numerous IOP measurements were made to familiarize the rabbits with this procedure. Baseline IOP measurements were determined by applanation tonometry following topical administration of 3 drops of 1% suspension of analog CAI inhibitor to one eye. The fellow eye received blank vehicle. The observer was masked. Each eye received 1 to 2 drops of proparacaine hydrochloride (0.5%) to anethetize the cornea prior to placing the sensor tip of the tonometer flot on the cornea. IOP measurements were determined over 180 minutes at 20 minute intervals. Changes in IOP were expressed as:
IOP change=IOP (dosed eye - control eye)t -IOP (dosed eye prior to
administration - control eye)t=O
Intraocular pressure (IOP) measurements of 6-hydroxyethoxy-2-benzothiazole sulfonamide in rabbits^a maintained on 3% sodium chloride drinking water following topical instillation.^b,c
^b The dose was 50 μl of a 1% suspension q 2 minutes for a total of 3 doses

[2] = tested on: lasered eyes of cynomologous monkeys (intraocular pressure); assay: Intraocular pressure by pneumatonometry, "DeSantis" test, laser-treated hypertensive right eye (OD); type: in vivo, cynomologous monkey; conditions: for IOP (individual monkey) / Mean IOP / Mean % change of IOP / Mean % change of IOP versus control: OD (lasered)
Text: (§1) Because there are certain differences in the eyes of rabbits and man, it was desired to test topical carbonic anhydrase inhibition by the compound of the present invention in a subhuman primate species to confirm the presence of activity by this route. The cynomologous monkey was chosen to represent the species. Because drug effects on intraocular pressure are sometimes less dramatic or not demonstrable using an eye that is normotensive, a test protocol known as the "DeSantis" test was developed. It involves testing the carbonic anhydrase inhibitor effects in eyes made hypertensive by laser treatment. […] After the eye was allowed to recover from the inflammatory process which accompanied the laser treatment, it was used to test the subject drugs.
(§2) Intraocular pressure (IOP) was determined using an Alcon Pneumatonograph after light corneal anesthesia with proparacaine, before and at 1, 3 and 7 hours after installation of drug to both eyes of each of six cynomologous monkeys per group. […] Animals were trained to sit in restraint chairs and to accept the pressure measurement. Following the measurement, residual anesthetic was washed out with saline.
(§3) Data for the intraocular pressure studies are presented in the attached tables, where the lasered eyes but not the normal eyes show significant reduction of intraocular pressure compared to control animals.
(§4) In the tables below "OD" refers to ocular dexter, and "OS" refers to ocular sinnister. This is simply another way of saying right and left eye. The designation number in the lefthand column of each table refers to the designation number assigned to each monkey. "SE" refers to standard error.

[3] = tested on: normal eyes of cynomologous monkeys (intraocular pressure); assay: Intraocular pressure by pneumatonometry, normal left eye (OS); type: in vivo, cynomologous monkey
Text: as §1, §2, §3, §4

[4] = Table 1, 1.0% gel, 0 hr (before drug)
[5] = Table 2 (six days later), 1.0% gel, 0 hr (before drug)
[6] = Table 2 (six days later), 1.0% gel, 3 hr
[7] = Table 2 (six days later), 1.0% gel, 7 hr
[8] = Table 3, 3.0% gel, 0 hr (before drug)
[9] = Table 4, 3.0% gel, 0 hr (before drug)
[10] = Table 4, 3.0% gel, 0 hr (before drug), listed as 6-Hydroxyethoxy-2-benzothiazolesulfomaide
[11] = Table 4, 3.0% gel, 1 hr, listed as 6-Hydroxyethoxy-2-benzothiazolesulfomaide
[12] = Table 4, 3.0% gel, 3 hr, listed as 6-Hydroxyethoxy-2-benzothiazolesulfomaide
[13] = Table 4, 3.0% gel, 7 hr, listed as 6-Hydroxyethoxy-2-benzothiazolesulfomaide

NS(=O)(=O)c1nc2ccc(OCCO)cc2s1 [6-hydroxyethoxy-2-benzothiazolesulfonamide]
Ave. change in IOP ([1]; 20 min after dosing, N=12, probability N.S.): -0.2 mm Hg | Ave. change in IOP ([1]; 40 min after dosing, N=12, probability 0.07): -1.1 mm Hg | Ave. change in IOP ([1]; 60 min after dosing, N=12, probability 0.04): -1.1 mm Hg | Ave. change in IOP ([1]; 80 min after dosing, N=12, probability 0.12): -0.8 mm Hg | Ave. change in IOP ([1]; 100 min after dosing, N=12, probability 0.04): -1.2 mm Hg | Ave. change in IOP ([1]; 120 min after dosing, N=12, probability N.S.): -0.5 mm Hg | Ave. change in IOP ([1]; 140 min after dosing, N=12, probability N.S.): 0.2 mm Hg | Ave. change in IOP ([1]; 160 min after dosing, N=12, probability N.S.): 0.3 mm Hg | Ave. change in IOP ([1]; 180 min after dosing, N=12, probability N.S.): -0.2 mm Hg | effectiveness for topical treatment of glaucoma (in words) ([1]; rabbits): an effective treating composition for topical treatment of glaucoma | Ave. change in IOP ([1]; time 0 (baseline), N=12 rabbits): 0 mm Hg | IOP (individual monkey) [2, 4]: 28 mmHg and 46 mmHg and 35 mmHg and 48 mmHg and 38 mmHg and 25 mmHg | Mean IOP [2, 4]: 36.7 mmHg | IOP (individual monkey) ([2]; Table 1, 1.0% gel, 3 hr): 23 mmHg and 36 mmHg and 30 mmHg and 40 mmHg and 34 mmHg | Mean % change of IOP ([2]; Table 1, 1.0% gel, 3 hr): -14.9% | Mean IOP ([2]; Table 1, 1.0% gel, 3 hr): 31.0 mmHg | IOP (individual monkey) ([2]; Table 1, 1.0% gel, 7 hr): 24 mmHg and 46 mmHg and 33 mmHg and 41 mmHg and 34 mmHg and 25 mmHg | Mean % change of IOP ([2]; Table 1, 1.0% gel, 7 hr): -7.5% | Mean IOP ([2]; Table 1, 1.0% gel, 7 hr): 33.8 mmHg | IOP (individual monkey) [2, 5]: 51 mmHg and 52 mmHg and 34 mmHg and 38 mmHg and 28 mmHg and 30 mmHg | Mean IOP [2, 5]: 38.8 mmHg | IOP (individual monkey) [2, 6]: 38 mmHg and 50 mmHg and 29 mmHg and 35 mmHg and 27 mmHg and 26 mmHg | Mean % change of IOP [2, 6]: -11.5% | Mean IOP [2, 6]: 34.2 mmHg | IOP (individual monkey) [2, 7]: 36 mmHg and 48 mmHg and 28 mmHg and 37 mmHg and 24 mmHg and 32 mmHg | Mean % change of IOP [2, 7]: -10.8% | Mean IOP [2, 7]: 34.2 mmHg | IOP (individual monkey) [2, 8]: 50 mmHg and 35 mmHg and 33 mmHg and 55 mmHg and 40 mmHg and 44 mmHg | Mean IOP [2, 8]: 42.8 mmHg | IOP (individual monkey) ([2]; Table 3, 3.0% gel, 1 hr): 45 mmHg and 33 mmHg and 30 mmHg and 52 mmHg and 35 mmHg and 50 mmHg | Mean % change of IOP versus control ([2]; Table 3, 3.0% gel, 1 hr): -4.9% | Mean IOP ([2]; Table 3, 3.0% gel, 1 hr): 40.8 mmHg | IOP (individual monkey) ([2]; Table 3, 3.0% gel, 3 hr): 41 mmHg and 20 mmHg and 30 mmHg and 57 mmHg and 32 mmHg and 45 mmHg | Mean % change of IOP versus control ([2]; Table 3, 3.0% gel, 3 hr): -14.0% | Mean IOP ([2]; Table 3, 3.0% gel, 3 hr): 37.5 mmHg | IOP (individual monkey) ([2]; Table 3, 3.0% gel, 7 hr): 37 mmHg and 23 mmHg and 25 mmHg and 55 mmHg and 33 mmHg and 40 mmHg | Mean % change of IOP versus control ([2]; Table 3, 3.0% gel, 7 hr): -18.5% | Mean IOP ([2]; Table 3, 3.0% gel, 7 hr): 35.5 mmHg | Mean % change of IOP [2, 9]: 0.0% | Mean IOP [2, 9]: 44.7 mmHg | IOP (individual monkey) [2, 10]: 38 mmHg and 55 mmHg and 37 mmHg and 42 mmHg and 50 mmHg and 46 mmHg | Mean % change of IOP ([2]; Table 4, 3.0% gel, 1 hr): -10.1% | Mean IOP ([2]; Table 4, 3.0% gel, 1 hr): 40.3 mmHg | IOP (individual monkey) [2, 11]: 37 mmHg and 50 mmHg and 32 mmHg and 30 mmHg and 53 mmHg and 40 mmHg | Mean % change of IOP ([2]; Table 4, 3.0% gel, 3 hr): -15.0% | Mean IOP ([2]; Table 4, 3.0% gel, 3 hr): 38.3 mmHg | IOP (individual monkey) [2, 12]: 33 mmHg and 47 mmHg and 29 mmHg and 21 mmHg and 45 mmHg and 55 mmHg | Mean % change of IOP ([2]; Table 4, 3.0% gel, 7 hr): -16.8% | Mean IOP ([2]; Table 4, 3.0% gel, 7 hr): 37.2 mmHg | IOP (individual monkey) [2, 13]: 35 mmHg and 55 mmHg and 28 mmHg and 38 mmHg and 32 mmHg | effectiveness for topical treatment of glaucoma (in words) ([2]; cynomologous monkeys): an effective treating composition for topical treatment of glaucoma | IOP (individual monkey) [3, 4]: 33 mmHg and 19 mmHg and 24 mmHg and 23 mmHg and 20 mmHg | Mean IOP [3, 4]: 25.3 mmHg | IOP (individual monkey) ([3]; Table 1, 1.0% gel, 3 hr): 34 mmHg and 20 mmHg and 25 mmHg and 19 mmHg and 38 mmHg | Mean % change of IOP ([3]; Table 1, 1.0% gel, 3 hr): +5.2% | Mean IOP ([3]; Table 1, 1.0% gel, 3 hr): 26.8 mmHg | IOP (individual monkey) ([3]; Table 1, 1.0% gel, 7 hr): 34 mmHg and 25 mmHg and 28 mmHg and 22 mmHg and 19 mmHg and 41 mmHg | Mean % change of IOP ([3]; Table 1, 1.0% gel, 7 hr): +11.1% | Mean IOP ([3]; Table 1, 1.0% gel, 7 hr): 28.2 mmHg | IOP (individual monkey) [3, 5]: 30 mmHg and 22 mmHg and 25 mmHg and 27 mmHg and 24 mmHg | Mean IOP [3, 5]: 25.0 mmHg | IOP (individual monkey) [3, 6]: 29 mmHg and 23 mmHg and 26 mmHg and 27 mmHg and 24 mmHg | Mean % change of IOP [3, 6]: +1.9% | Mean IOP [3, 6]: 25.3 mmHg | IOP (individual monkey) [3, 7]: 27 mmHg and 23 mmHg and 28 mmHg and 24 mmHg | Mean % change of IOP [3, 7]: +5.2% | Mean IOP [3, 7]: 26.0 mmHg | IOP (individual monkey) [3, 8]: 27 mmHg and 24 mmHg and 22 mmHg and 26 mmHg and 30 mmHg | Mean IOP [3, 8]: 25.5 mmHg | IOP (individual monkey) ([3]; Table 3, 3.0% gel, 1 hr): 25 mmHg and 29 mmHg and 24 mmHg and 30 mmHg | Mean % change of IOP ([3]; Table 3, 3.0% gel, 1 hr): +1.7% | Mean IOP ([3]; Table 3, 3.0% gel, 1 hr): 26.0 mmHg | IOP (individual monkey) ([3]; Table 3, 3.0% gel, 3 hr): 23 mmHg and 27 mmHg and 28 mmHg and 25 mmHg | Mean % change of IOP ([3]; Table 3, 3.0% gel, 3 hr): -0.4% | Mean IOP ([3]; Table 3, 3.0% gel, 3 hr): 25.2 mmHg | IOP (individual monkey) ([3]; Table 3, 3.0% gel, 7 hr): 23 mmHg and 25 mmHg and 20 mmHg and 29 mmHg and 26 mmHg | Mean % change of IOP ([3]; Table 3, 3.0% gel, 7 hr): -0.6% | Mean IOP ([3]; Table 3, 3.0% gel, 7 hr): 25.3 mmHg | Mean % change of IOP [3, 9]: 0.0% | Mean IOP [3, 9]: 23.3 mmHg | IOP (individual monkey) [3, 10]: 24 mmHg and 20 mmHg and 18 mmHg and 30 mmHg and 21 mmHg and 27 mmHg | Mean % change of IOP ([3]; Table 4, 3.0% gel, 1 hr): 3.3% | Mean IOP ([3]; Table 4, 3.0% gel, 1 hr): 23.8 mmHg | IOP (individual monkey) [3, 11]: 25 mmHg and 16 mmHg and 23 mmHg and 28 mmHg and 24 mmHg and 27 mmHg | Mean % change of IOP ([3]; Table 4, 3.0% gel, 3 hr): -1.8% | Mean IOP ([3]; Table 4, 3.0% gel, 3 hr): 22.7 mmHg | IOP (individual monkey) [3, 12]: 27 mmHg and 18 mmHg and 20 mmHg and 25 mmHg and 21 mmHg | Mean % change of IOP ([3]; Table 4, 3.0% gel, 7 hr): 5.5% | Mean IOP ([3]; Table 4, 3.0% gel, 7 hr): 24.3 mmHg | IOP (individual monkey) [3, 13]: 28 mmHg and 20 mmHg and 23 mmHg and 27 mmHg
